Patent US11666642B2, “PDE5 compositions and methods for immunotherapy” (Obsidian Therapeutics, Inc., priority 2017, dated 2023)

What was measured:
HEK293T cells = assay: Effect of linker on DD regulation of IL15-IL15Ra, FACS using the HA antibody; format: cell-based; details: for Stabilization ratio: 1 μM Vardenafil vs DMSO control; for % HA positive cells, Vardenafil: 1 μM Vardenafil, 24 hours; for % HA positive cells, Control: DMSO control
Procedure: The effect of the type of linker used and the length of the linker on the regulation of the expression of the payload was tested. IL15-IL15Ra fusion constructs were linked to the hPDE5 (R732L) DD using GSGSGS (SEQ ID NO. 8330) as the linker (as in OT-IL15-111), or […] (SEQ ID NO. 8331) as the linker (as in OT-IL15-112) or using […] (SEQ ID NO. 8332) as the linker (as in OT-IL15-113). The IL15 portion of the construct was tagged with a Flag tag while the IL15Ra portion was tagged with a HA tag. These tags allow both the components of the construct to be tracked individually in experiments. […] The properties of the DDs regulated IL15-IL15Ra payloads were analyzed in the presence and absence of ligands via FACS using the HA antibody as previously described.

HEK 293 cells = assay: CAR surface expression by Protein L staining, dose and time dependence; format: cell-based; details: OT-CD19-053 in HEK 293 cells, 24 hours of ligand
Procedure: The dose dependent regulation of OT-CD19-052 and OT-CD19-053 was measured in HEK 293 cells transfected with 2 ug DNA and stably selected using 2 ug/ml puromycin.
Cells were also treated with ligand for varying durations of time with ligand concentrations shown in Table 45C and Protein L expression was measured using FACS.

NIH 3T3 cells = assay: Western blot analysis using a GFP antibody, hPDE5 C terminal mutants; details: hPDE5 mutant construct, 24 hours and 48 hours, vs untreated cells
Excerpt: All comparisons were made against cells that were not treated with either ligand.

## OT-IL15-113: IL15-IL15Ra fusion linked to hPDE5 (R732L) DD using GSGSGGGSGS linker
HEK293T cells
  Stabilization ratio: 1.65
  % HA positive cells, Vardenafil: 69.1%
  % HA positive cells, Control: 42%

## OT-IL15-112: IL15-IL15Ra fusion linked to hPDE5 (R732L) DD using GSGSGSGS linker
HEK293T cells
  % HA positive cells, Vardenafil: 74.6%
  % HA positive cells, Control: 41.6%

## CCCc1nc(C)c2c(=O)[nH]c(-c3cc(S(=O)(=O)N4CCN(CC)CC4)ccc3OCC)nn12 [Vardenafil]
HEK 293 cells; Homo sapiens, HEK293
  EC50: 0.025 µM

## CCCc1nn(C)c2c(=O)[nH]c(-c3cc(S(=O)(=O)N4CCN(C)CC4)ccc3OCC)nc12 [Sildenafil]
NIH 3T3 cells; 0.1 μM ligand
  GFP protein levels by western blot: modest stabilization of GFP protein levels
NIH 3T3 cells; 1 μM ligand
  GFP protein levels by western blot: stabilization of GFP increased
HEK 293 cells
  EC50: 1.5 µM

## OT-IL15-111: IL15-IL15Ra fusion linked to hPDE5 (R732L) DD using GSGSGS linker
HEK293T cells
  Stabilization ratio: 1.69
  % HA positive cells, Vardenafil: 63.2%
  % HA positive cells, Control: 37.5%
